Key:
[1] = system: Glomerella lacenarium (Colletotrichum lacenarium); test: Fungicidal activity, liquid culture, cucumber preventative (anthracnose); type: cell-based; conditions: 20 ppm in the applied formulation, liquid culture in PDB, inhibition of growth measured photometrically 3 to 4 days after application, compared to untreated control, read-out: disease control
Summary of the method: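 PDB broth seeded with cryo-stored conidia, added onto compound (DMSO solution) in 96-well plates; 24° C.; photometric growth read at 3–4 d post-application; % inhibition vs untreated check.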

[2] = system: Puccinia recondita f. Sp. Tritici; test: Fungicidal activity, wheat leaf disc preventative (brown rust); type: in vivo; conditions: foliar, 200 ppm in the applied formulation, wheat leaf segments cv. Kanzler, compared to untreated control, 7 to 9 days after application, read-out: disease control
Summary of the method: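 Preventative leaf-segment test: spray application of diluted formulated compound on wheat cv. Kanzler, spore inoculation after 1 day. Percent control relative to untreated segments rated 7 to 9 days post-application, with incubation at 19° C, 75% relative humidity, 12 h photoperiod.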

[3] = system: Phakopsora pachyrhizi; test: Fungicidal activity, soybean leaf disc preventative (Asian soybean rust); type: in vivo; conditions: foliar, 200 ppm in the applied formulation, soybean leaf disks, compared to untreated control, 12 to 14 days after application, read-out: disease control
Summary of the method: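 Read-out is percent disease control relative to untreated check discs, assessed once untreated discs show adequate disease, 12 to 14 days after application. Compounds, tested at 200 ppm in the applied formulation, are sprayed onto soybean leaf discs one day before inoculation with a spore suspension.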

[4] = system: Puccinia recondita f. Sp. Tritici; test: Fungicidal activity, wheat leaf disc curative (brown rust); type: in vivo; conditions: foliar, 200 ppm in the applied formulation, wheat leaf segments cv. Kanzler, curative (applied 1 day after inoculation), compared to untreated control, 6 to 8 days after application, read-out: disease control
Summary of the method: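 Curative leaf-segment test, cv. Kanzler: spore inoculation, dark storage 19° C/75% RH, compound spray 1 day post-inoculation. Then 12 h light/12 h dark, 19° C, 75% RH. Read-out: % disease control vs untreated check, 6–8 d after application.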

CNC(=O)N(C)Cc1ccc(-c2noc(C(F)(F)F)n2)s1 [Compound 4.1, 1,3-dimethyl-1-[[5-[5-(trifluoromethyl)-1,2,4-oxadiazol-3-yl]-2-thienyl]methyl]urea]
≥ 80%: inhibition of growth at 20 ppm [1] | pest or weed control at 200 ppm [2] | pest or weed control at 200 ppm [3] | pest or weed control at 200 ppm [4]

CNC(=O)N(Cc1ccc(-c2noc(C(F)(F)F)n2)s1)C1CC1 [Compound 4.2, 1-cyclopropyl-3-methyl-1-[[5-[5-(trifluoromethyl)-1,2,4-oxadiazol-3-yl]-2-thienyl]methyl]urea]
≥ 80%: inhibition of growth at 20 ppm [1] | pest or weed control at 200 ppm [2] | pest or weed control at 200 ppm [3] | pest or weed control at 200 ppm [4]

CCN(Cc1ccc(-c2noc(C(F)(F)F)n2)s1)C(=O)NC [Compound 4.5, 1-ethyl-3-methyl-1-[[5-[5-(trifluoromethyl)-1,2,4-oxadiazol-3-yl]-2-thienyl]methyl]urea]
≥ 80%: inhibition of growth at 20 ppm [1] | pest or weed control at 200 ppm [2] | pest or weed control at 200 ppm [3] | pest or weed control at 200 ppm [4]

CCN(Cc1ccc(-c2noc(C(F)(F)F)n2)s1)C(=O)C(C)C [Compound 4.7, N-ethyl-2-methyl-N-[[5-[5-(trifluoromethyl)-1,2,4-oxadiazol-3-yl]-2-thienyl]methyl]propanamide]
≥ 80%: inhibition of growth at 20 ppm [1] | pest or weed control at 200 ppm [2] | pest or weed control at 200 ppm [3] | pest or weed control at 200 ppm [4]

CCNC(=O)N(CC)Cc1ccc(-c2noc(C(F)(F)F)n2)s1 [Compound 4.8, 1,3-diethyl-1-[[5-[5-(trifluoromethyl)-1,2,4-oxadiazol-3-yl]-2-thienyl]methyl]urea]
≥ 80%: inhibition of growth at 20 ppm [1] | pest or weed control at 200 ppm [2] | pest or weed control at 200 ppm [3] | pest or weed control at 200 ppm [4]

CCN(Cc1ccc(-c2noc(C(F)(F)F)n2)s1)C(=O)NC(C)C [Compound 4.9, 1-ethyl-3-isopropyl-1-[[5-[5-(trifluoromethyl)-1,2,4-oxadiazol-3-yl]-2-thienyl]methyl]urea]
≥ 80%: inhibition of growth at 20 ppm [1] | pest or weed control at 200 ppm [2] | pest or weed control at 200 ppm [3] | pest or weed control at 200 ppm [4]

CC(C)C(=O)N(C)Cc1ccc(-c2noc(C(F)(F)F)n2)s1 [Compound 4.10, N,2-dimethyl-N-[[5-[5-(trifluoromethyl)-1,2,4-oxadiazol-3-yl]-2-thienyl]methyl]propanamide]
≥ 80%: inhibition of growth at 20 ppm [1] | pest or weed control at 200 ppm [2] | pest or weed control at 200 ppm [3] | pest or weed control at 200 ppm [4]

CNC(=O)N(Cc1ccc(-c2noc(C(F)(F)F)n2)s1)C(C)C [Compound 4.13, 1-isopropyl-3-methyl-1-[[5-[5-(trifluoromethyl)-1,2,4-oxadiazol-3-yl]-2-thienyl]methyl]urea]
≥ 80%: inhibition of growth at 20 ppm [1] | pest or weed control at 200 ppm [2] | pest or weed control at 200 ppm [3] | pest or weed control at 200 ppm [4]

COC(C)C(=O)N(C)Cc1ccc(-c2noc(C(F)(F)F)n2)s1 (stereo not drawn) [Compound 4.15, 2-methoxy-N-methyl-N-[[5-[5-(trifluoromethyl)-1,2,4-oxadiazol-3-yl]-2-thienyl]methyl]propanamide]
≥ 80%: inhibition of growth at 20 ppm [1] | pest or weed control at 200 ppm [2] | pest or weed control at 200 ppm [3] | pest or weed control at 200 ppm [4]

CCNC(=O)N(C)Cc1ccc(-c2noc(C(F)(F)F)n2)s1 [Compound 4.16, 3-ethyl-1-methyl-1-[[5-[5-(trifluoromethyl)-1,2,4-oxadiazol-3-yl]-2-thienyl]methyl]urea]
≥ 80%: inhibition of growth at 20 ppm [1] | pest or weed control at 200 ppm [2] | pest or weed control at 200 ppm [3] | pest or weed control at 200 ppm [4]

CC(C)NC(=O)N(C)Cc1ccc(-c2noc(C(F)(F)F)n2)s1 [Compound 4.17, 3-isopropyl-1-methyl-1-[[5-[5-(trifluoromethyl)-1,2,4-oxadiazol-3-yl]-2-thienyl]methyl]urea]
≥ 80%: inhibition of growth at 20 ppm [1] | pest or weed control at 200 ppm [2] | pest or weed control at 200 ppm [3] | pest or weed control at 200 ppm [4]

CNC(=O)N(Cc1ccc(-c2noc(C(F)(F)F)n2)s1)OCC(F)F [Compound 4.19, 1-(2,2-difluoroethoxy)-3-methyl-1-[[5-[5-(trifluoromethyl)-1,2,4-oxadiazol-3-yl]-2-thienyl]methyl]urea]
≥ 80%: inhibition of growth at 20 ppm [1] | pest or weed control at 200 ppm [2] | pest or weed control at 200 ppm [3] | pest or weed control at 200 ppm [4]

CCN(Cc1ccc(-c2noc(C(F)(F)F)n2)s1)C(=O)CCOC [Compound 4.25, N-ethyl-3-methoxy-N-[[5-[5-(trifluoromethyl)-1,2,4-oxadiazol-3-yl]-2-thienyl]methyl]propanamide]
≥ 80%: inhibition of growth at 20 ppm [1] | pest or weed control at 200 ppm [2] | pest or weed control at 200 ppm [3] | pest or weed control at 200 ppm [4]

CCC(=O)N(CC)Cc1ccc(-c2noc(C(F)(F)F)n2)s1 [Compound 4.26, N-ethyl-N-[[5-[5-(trifluoromethyl)-1,2,4-oxadiazol-3-yl]-2-thienyl]methyl]propanamide]
≥ 80%: inhibition of growth at 20 ppm [1] | pest or weed control at 200 ppm [2] | pest or weed control at 200 ppm [3] | pest or weed control at 200 ppm [4]

CCN(Cc1ccc(-c2noc(C(F)(F)F)n2)s1)C(=O)CCCOC [Compound 4.28, N-ethyl-4-methoxy-N-[[5-[5-(trifluoromethyl)-1,2,4-oxadiazol-3-yl]-2-thienyl]methyl]butanamide]
≥ 80%: inhibition of growth at 20 ppm [1] | pest or weed control at 200 ppm [2] | pest or weed control at 200 ppm [3] | pest or weed control at 200 ppm [4]

CC(=O)NCC(=O)N(C)Cc1ccc(-c2noc(C(F)(F)F)n2)s1 [Compound 4.33, 2-acetamido-N-methyl-N-[[5-[5-(trifluoromethyl)-1,2,4-oxadiazol-3-yl]-2-thienyl]methyl]acetamide]
≥ 80%: inhibition of growth at 20 ppm [1] | pest or weed control at 200 ppm [2] | pest or weed control at 200 ppm [3] | pest or weed control at 200 ppm [4]

COCCC(=O)N(C)Cc1ccc(-c2noc(C(F)(F)F)n2)s1 [Compound 4.35, 3-methoxy-N-methyl-N-[[5-[5-(trifluoromethyl)-1,2,4-oxadiazol-3-yl]-2-thienyl]methyl]propanamide]
≥ 80%: inhibition of growth at 20 ppm [1] | pest or weed control at 200 ppm [2] | pest or weed control at 200 ppm [3] | pest or weed control at 200 ppm [4]

CCC(C)C(=O)N(C)Cc1ccc(-c2noc(C(F)(F)F)n2)s1 (stereo not drawn) [Compound 4.37, N,2-dimethyl-N-[[5-[5-(trifluoromethyl)-1,2,4-oxadiazol-3-yl]-2-thienyl]methyl]butanamide]
≥ 80%: inhibition of growth at 20 ppm [1] | pest or weed control at 200 ppm [2] | pest or weed control at 200 ppm [3] | pest or weed control at 200 ppm [4]

COCCCC(=O)N(C)Cc1ccc(-c2noc(C(F)(F)F)n2)s1 [Compound 4.38, 4-methoxy-N-methyl-N-[[5-[5-(trifluoromethyl)-1,2,4-oxadiazol-3-yl]-2-thienyl]methyl]butanamide]
≥ 80%: inhibition of growth at 20 ppm [1] | pest or weed control at 200 ppm [2] | pest or weed control at 200 ppm [3] | pest or weed control at 200 ppm [4]

CN(Cc1ccc(-c2noc(C(F)(F)F)n2)s1)C(=O)CC(F)(F)F [Compound 4.40, 3,3,3-trifluoro-N-methyl-N-[[5-[5-(trifluoromethyl)-1,2,4-oxadiazol-3-yl]-2-thienyl]methyl]propanamide]
≥ 80%: inhibition of growth at 20 ppm [1] | pest or weed control at 200 ppm [2] | pest or weed control at 200 ppm [3] | pest or weed control at 200 ppm [4]

COCCC(=O)N(Cc1ccc(-c2noc(C(F)(F)F)n2)s1)C(C)C [Compound 4.45, N-isopropyl-3-methoxy-N-[[5-[5-(trifluoromethyl)-1,2,4-oxadiazol-3-yl]-2-thienyl]methyl]propanamide]
≥ 80%: inhibition of growth at 20 ppm [1] | pest or weed control at 200 ppm [2] | pest or weed control at 200 ppm [3] | pest or weed control at 200 ppm [4]

COCC(=O)N(Cc1ccc(-c2noc(C(F)(F)F)n2)s1)C1CC1 [Compound 4.52, N-cyclopropyl-2-methoxy-N-[[5-[5-(trifluoromethyl)-1,2,4-oxadiazol-3-yl]-2-thienyl]methyl]acetamide]
≥ 80%: inhibition of growth at 20 ppm [1] | pest or weed control at 200 ppm [2] | pest or weed control at 200 ppm [3] | pest or weed control at 200 ppm [4]

CCCC(=O)N(Cc1ccc(-c2noc(C(F)(F)F)n2)s1)C1CC1 [Compound 4.54, N-cyclopropyl-N-[[5-[5-(trifluoromethyl)-1,2,4-oxadiazol-3-yl]-2-thienyl]methyl]butanamide]
≥ 80%: inhibition of growth at 20 ppm [1] | pest or weed control at 200 ppm [2] | pest or weed control at 200 ppm [3] | pest or weed control at 200 ppm [4]

COCCC(=O)N(Cc1ccc(-c2noc(C(F)(F)F)n2)s1)C1CC1 [Compound 4.55, N-cyclopropyl-3-methoxy-N-[[5-[5-(trifluoromethyl)-1,2,4-oxadiazol-3-yl]-2-thienyl]methyl]propanamide]
≥ 80%: inhibition of growth at 20 ppm [1] | pest or weed control at 200 ppm [2] | pest or weed control at 200 ppm [3] | pest or weed control at 200 ppm [4]

Reference: patent publication US20200187502A1, “MICROBIOCIDAL OXADIAZOLE DERIVATIVES” (SYNGENTA PARTICIPATIONS AG, priority 2017, published 2020)
